In ChEMBL document CHEMBL1201862, “PubChem BioAssay data set” (2004):
Active and inactive are the calls of the source.

Tests used:
[1] = target: T1, Short transient receptor potential channel 4 (Mus musculus, UniProt Q9QUQ5); assay: calcium entry via TRPC4 opening agents – cell-based, HEK293 TRPC4/mu-opioid, Fluo-4 calcium, dose response (AID 434937); assay type: functional
T1 sequence (Q9QUQ5 whole entry): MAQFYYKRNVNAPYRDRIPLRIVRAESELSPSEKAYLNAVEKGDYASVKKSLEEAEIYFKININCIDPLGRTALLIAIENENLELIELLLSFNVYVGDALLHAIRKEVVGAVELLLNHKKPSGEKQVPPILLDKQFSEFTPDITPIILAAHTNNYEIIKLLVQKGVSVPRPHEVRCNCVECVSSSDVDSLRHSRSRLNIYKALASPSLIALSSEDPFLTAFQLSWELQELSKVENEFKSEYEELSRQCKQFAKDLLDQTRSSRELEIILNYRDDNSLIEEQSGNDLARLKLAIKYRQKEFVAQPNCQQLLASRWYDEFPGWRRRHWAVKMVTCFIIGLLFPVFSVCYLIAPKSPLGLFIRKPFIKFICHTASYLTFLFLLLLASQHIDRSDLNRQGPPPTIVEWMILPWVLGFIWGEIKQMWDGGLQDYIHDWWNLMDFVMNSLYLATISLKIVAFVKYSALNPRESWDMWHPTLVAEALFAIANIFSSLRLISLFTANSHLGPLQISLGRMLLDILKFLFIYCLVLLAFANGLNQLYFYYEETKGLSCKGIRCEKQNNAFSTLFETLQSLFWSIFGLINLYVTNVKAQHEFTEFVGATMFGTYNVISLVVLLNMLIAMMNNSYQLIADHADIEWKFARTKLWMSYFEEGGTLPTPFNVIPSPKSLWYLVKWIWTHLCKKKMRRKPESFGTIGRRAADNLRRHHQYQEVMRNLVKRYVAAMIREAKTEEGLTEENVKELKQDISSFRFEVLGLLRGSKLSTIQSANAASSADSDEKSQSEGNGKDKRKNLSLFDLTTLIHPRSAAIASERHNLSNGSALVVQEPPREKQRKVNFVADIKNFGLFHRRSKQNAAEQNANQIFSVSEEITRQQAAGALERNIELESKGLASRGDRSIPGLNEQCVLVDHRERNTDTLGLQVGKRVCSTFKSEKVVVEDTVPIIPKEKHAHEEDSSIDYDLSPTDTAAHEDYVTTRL

[2] = target: T2, Heat shock factor protein 1 (Mus musculus, UniProt P38532); assay: decrease of HSF1-responsive luciferase luminescence – cell-based, NIH3T3, dose retest, confirmation (AID 2382); assay type: functional;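 note: NIH3T3 fibroblasts with HSF1-driven luciferase reporter stressed by proteasome inhibitor MG132; luminescence from HSF1-driven luciferase expression after 8 hours of MG132 stress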
T2 sequence (P38532 whole entry): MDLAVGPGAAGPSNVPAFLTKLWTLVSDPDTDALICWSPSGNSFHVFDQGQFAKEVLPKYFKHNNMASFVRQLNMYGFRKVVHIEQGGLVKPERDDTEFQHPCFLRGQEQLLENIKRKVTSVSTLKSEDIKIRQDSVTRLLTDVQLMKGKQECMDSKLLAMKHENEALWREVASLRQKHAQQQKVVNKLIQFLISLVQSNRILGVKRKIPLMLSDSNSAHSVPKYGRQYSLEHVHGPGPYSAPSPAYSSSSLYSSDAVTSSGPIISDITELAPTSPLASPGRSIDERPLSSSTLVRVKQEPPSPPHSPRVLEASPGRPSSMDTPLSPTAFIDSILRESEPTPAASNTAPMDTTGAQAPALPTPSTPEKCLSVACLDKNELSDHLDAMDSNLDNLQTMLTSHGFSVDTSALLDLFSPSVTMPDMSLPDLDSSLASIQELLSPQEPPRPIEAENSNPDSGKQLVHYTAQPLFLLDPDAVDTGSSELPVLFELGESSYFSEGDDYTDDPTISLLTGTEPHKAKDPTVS

[3] = Trypanosoma cruzi growth suppression in host cells – NIH3T3 host cells, beta-gal luminescence, confirmation (AID 2044); assay type: functional, cell-based;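 note: intracellular parasites grown in NIH/3T3 mouse fibroblasts as host cells; luminescent beta-galactosidase reporter signal from transgenic T. cruzi replicating inside host cells; inhibitors lower the luminescence signal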
[4] = NIH3T3 cell viability loss – ATP luminescence, mouse fibroblasts, counter-screen, dose response (AID 2010); assay type: functional, cell-based;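 note: cells exposed to compound for about 90 hours before reading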
[5] = alpha-synuclein stem-loop luciferase translation blockers – H4 neuroglioma cells, luminescence, confirmation (AID 1988); assay type: functional, cell-based
[6] = viability of PTEN-deleted HCT116 cells – cell-based, HCT116 PTEN knockout, dose response (AID 1047); assay type: functional;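 note: HCT116 colon tumor cells with PTEN knocked out; cells exposed to compound for 60 hours before readout; potency for loss of cell viability measured by luminescence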
[7] = luciferase reporter signal suppression in cells – H4 neuroglioma cells, luminescence, dose response (AID 1990); assay type: functional, cell-based
[8] = HEK-293T viability loss after treatment – luminescence, T-cell screen hits, cytotoxicity control for TCR NF-kB inhibitor project, dose response (AID 489026); assay type: functional, cell-based;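 note: cells exposed to compound about 14 hours before the viability readout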
[9] = viability of HCT116 lacking mutant beta-catenin – cell-based, human colon tumor, dose response (AID 1045); assay type: functional;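 note: HCT116 colon tumor cells with beta catenin knocked out; cells exposed to compound for 60 hours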
[10] = Luminescence Cell-Based Dose Response HTS to Identify Inhibitors of 5'UTR Stem-Loop Driven Prion Protein mRNA Translation in H4 Neuroglioblastoma Cells. [Related pubchem assays: 1827 (Project Summary), 1813 (Primary HTS)]; assay type: functional
[11] = target: Genome polyprotein (dengue virus type 2, UniProt P29990); assay: flavivirus cap methylation enzyme inhibition – biochemical, confirmation dose response, primary screen (AID 588689); assay type: functional
Chain of Genome polyprotein (P29990 2492-3391 limits assumed): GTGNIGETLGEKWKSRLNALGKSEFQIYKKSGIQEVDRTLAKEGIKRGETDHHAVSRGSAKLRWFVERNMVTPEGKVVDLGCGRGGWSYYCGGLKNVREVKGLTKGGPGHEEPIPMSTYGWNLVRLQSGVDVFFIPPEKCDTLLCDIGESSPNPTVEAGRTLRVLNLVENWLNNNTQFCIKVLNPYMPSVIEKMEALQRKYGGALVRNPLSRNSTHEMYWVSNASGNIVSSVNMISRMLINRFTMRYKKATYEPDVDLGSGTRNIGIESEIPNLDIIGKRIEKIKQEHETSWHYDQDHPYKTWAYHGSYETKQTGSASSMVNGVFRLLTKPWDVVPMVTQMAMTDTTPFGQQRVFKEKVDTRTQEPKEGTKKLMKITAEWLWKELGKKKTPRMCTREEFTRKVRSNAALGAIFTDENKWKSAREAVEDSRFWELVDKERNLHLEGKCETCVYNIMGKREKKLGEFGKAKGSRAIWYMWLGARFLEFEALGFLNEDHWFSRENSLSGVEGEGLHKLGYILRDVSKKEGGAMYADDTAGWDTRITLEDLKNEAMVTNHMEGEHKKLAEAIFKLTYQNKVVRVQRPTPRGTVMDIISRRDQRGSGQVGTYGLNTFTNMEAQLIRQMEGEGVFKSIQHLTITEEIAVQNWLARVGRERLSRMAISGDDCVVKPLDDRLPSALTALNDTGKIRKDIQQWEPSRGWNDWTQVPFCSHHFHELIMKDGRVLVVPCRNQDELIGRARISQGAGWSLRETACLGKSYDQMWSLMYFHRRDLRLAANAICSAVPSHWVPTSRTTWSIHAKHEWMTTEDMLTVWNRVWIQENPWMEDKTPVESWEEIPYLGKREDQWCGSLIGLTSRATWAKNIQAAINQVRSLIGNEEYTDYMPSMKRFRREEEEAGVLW

[12] = test system: BJ; assay: BJ-TERT-LT-ST fibroblast viability loss – cell-based, RAS-independent, luminescence, dose response (AID 1935); assay type: functional; conditions: Homo sapiens;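 note: BJ fibroblasts immortalized with TERT plus LT and ST oncogenes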
[13] = test system: BJ; assay: BJ-TERT fibroblast viability loss – cell-based, RAS-independent, luminescence, dose response (AID 1933); assay type: functional; conditions: Homo sapiens
[14] = test system: BJ; assay: cells; assay type: functional, cell-based; conditions: Homo sapiens
[15] = fluconazole-exposed Candida albicans growth modulators – fluorescence, retest, confirmation (AID 2467); assay type: functional, cell-based
[16] = DRD fibroblast viability loss – cell-based, non-viral oncogenic, luminescence, dose response (AID 1934); assay type: functional; conditions: Homo sapiens
[17] = NIH-3T3 fibroblast cytotoxicity, dose response, cytotoxicity control, cell-based, fluorescence, Alamar Blue, secondary assay (AID 2327); assay type: functional;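 note: NIH-3T3 mouse fibroblasts cultured with fluconazole at 8 µg/mL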
[18] = target: T3, Fatty acid synthase (Homo sapiens, UniProt P49327); assay: inhibition of human FAS-TE enzyme activity – biochemical, kinetic fluorescence intensity, dose response (AID 624326); assay type: functional;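 note: rate of fluorescence rise from hydrolysis of a fluorogenic O-methyl fluorescein ester substrate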
T3 sequence (P49327 whole entry): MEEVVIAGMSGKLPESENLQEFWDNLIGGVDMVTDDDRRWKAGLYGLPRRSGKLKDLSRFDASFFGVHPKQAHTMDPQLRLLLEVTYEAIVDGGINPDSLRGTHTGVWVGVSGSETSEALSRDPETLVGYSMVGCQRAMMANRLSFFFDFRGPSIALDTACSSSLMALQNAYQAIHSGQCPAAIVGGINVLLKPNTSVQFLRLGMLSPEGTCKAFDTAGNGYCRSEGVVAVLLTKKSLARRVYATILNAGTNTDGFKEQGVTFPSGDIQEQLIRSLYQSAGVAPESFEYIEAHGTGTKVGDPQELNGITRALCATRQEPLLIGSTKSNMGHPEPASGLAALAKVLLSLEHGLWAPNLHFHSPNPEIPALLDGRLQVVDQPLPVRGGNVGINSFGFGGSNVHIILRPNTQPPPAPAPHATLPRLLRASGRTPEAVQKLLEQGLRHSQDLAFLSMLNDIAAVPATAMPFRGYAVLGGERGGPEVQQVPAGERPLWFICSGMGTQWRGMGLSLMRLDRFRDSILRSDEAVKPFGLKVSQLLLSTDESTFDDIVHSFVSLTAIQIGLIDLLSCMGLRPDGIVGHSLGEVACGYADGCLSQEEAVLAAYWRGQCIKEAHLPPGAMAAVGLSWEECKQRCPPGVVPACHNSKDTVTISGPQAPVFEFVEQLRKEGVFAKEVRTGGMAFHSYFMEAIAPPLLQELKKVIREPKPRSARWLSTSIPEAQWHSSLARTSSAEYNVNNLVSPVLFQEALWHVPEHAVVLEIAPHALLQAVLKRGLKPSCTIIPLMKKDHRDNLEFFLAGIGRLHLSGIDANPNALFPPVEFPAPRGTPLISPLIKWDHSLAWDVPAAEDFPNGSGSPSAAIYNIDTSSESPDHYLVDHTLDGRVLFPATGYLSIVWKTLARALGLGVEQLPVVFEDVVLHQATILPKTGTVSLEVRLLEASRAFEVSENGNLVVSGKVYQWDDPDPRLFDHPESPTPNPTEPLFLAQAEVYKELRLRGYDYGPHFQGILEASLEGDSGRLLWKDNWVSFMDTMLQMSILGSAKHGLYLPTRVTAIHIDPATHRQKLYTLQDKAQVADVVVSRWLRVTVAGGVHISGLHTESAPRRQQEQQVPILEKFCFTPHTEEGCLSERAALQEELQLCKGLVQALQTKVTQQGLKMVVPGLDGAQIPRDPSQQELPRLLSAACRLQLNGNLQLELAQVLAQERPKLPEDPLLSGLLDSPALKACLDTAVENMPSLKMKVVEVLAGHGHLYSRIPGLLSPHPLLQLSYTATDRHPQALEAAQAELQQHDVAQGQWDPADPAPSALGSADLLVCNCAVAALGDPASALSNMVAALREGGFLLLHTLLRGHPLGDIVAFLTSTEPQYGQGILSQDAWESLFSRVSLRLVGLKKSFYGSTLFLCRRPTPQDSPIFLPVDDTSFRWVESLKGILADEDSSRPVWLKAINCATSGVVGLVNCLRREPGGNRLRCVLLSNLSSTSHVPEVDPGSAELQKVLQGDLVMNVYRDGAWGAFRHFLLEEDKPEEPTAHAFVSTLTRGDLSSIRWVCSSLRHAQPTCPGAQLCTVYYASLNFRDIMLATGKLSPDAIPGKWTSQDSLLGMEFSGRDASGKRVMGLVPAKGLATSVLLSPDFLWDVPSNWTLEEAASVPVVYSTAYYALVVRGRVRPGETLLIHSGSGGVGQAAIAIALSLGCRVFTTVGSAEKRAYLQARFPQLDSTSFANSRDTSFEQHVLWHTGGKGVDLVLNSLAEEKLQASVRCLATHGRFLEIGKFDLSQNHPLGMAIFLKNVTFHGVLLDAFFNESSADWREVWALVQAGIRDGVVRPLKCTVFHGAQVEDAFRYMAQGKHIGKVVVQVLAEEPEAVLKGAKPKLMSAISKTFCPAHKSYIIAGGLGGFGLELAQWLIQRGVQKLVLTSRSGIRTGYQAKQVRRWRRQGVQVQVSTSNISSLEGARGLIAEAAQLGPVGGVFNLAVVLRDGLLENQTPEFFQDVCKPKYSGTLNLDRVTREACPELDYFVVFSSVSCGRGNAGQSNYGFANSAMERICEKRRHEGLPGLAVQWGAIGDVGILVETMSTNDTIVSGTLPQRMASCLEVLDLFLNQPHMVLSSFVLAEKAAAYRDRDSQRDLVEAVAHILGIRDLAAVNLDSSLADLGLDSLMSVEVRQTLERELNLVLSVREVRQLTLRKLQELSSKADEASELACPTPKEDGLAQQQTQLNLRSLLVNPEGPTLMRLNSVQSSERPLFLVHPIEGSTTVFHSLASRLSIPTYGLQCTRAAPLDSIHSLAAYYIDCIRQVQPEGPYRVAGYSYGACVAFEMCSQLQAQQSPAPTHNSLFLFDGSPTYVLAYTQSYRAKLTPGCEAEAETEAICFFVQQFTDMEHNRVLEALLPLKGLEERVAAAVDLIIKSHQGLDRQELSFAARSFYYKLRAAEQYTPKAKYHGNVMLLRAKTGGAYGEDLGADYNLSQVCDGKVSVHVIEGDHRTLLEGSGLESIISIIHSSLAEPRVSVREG

[19] = target: T3, Fatty acid synthase; assay: inhibition of human FAS-TE enzyme activity – biochemical, endpoint fluorescence intensity, uHTS hits, dose response (AID 624327); assay type: functional;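 note: fluorescence from hydrolysis of an O-methyl fluorescein acyl ester substrate by the enzyme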
[20] = target: Glyceraldehyde-3-phosphate dehydrogenase (Homo sapiens, UniProt P04406)
Chain of Glyceraldehyde-3-phosphate dehydrogenase (P04406 whole entry, the tested form may be a part): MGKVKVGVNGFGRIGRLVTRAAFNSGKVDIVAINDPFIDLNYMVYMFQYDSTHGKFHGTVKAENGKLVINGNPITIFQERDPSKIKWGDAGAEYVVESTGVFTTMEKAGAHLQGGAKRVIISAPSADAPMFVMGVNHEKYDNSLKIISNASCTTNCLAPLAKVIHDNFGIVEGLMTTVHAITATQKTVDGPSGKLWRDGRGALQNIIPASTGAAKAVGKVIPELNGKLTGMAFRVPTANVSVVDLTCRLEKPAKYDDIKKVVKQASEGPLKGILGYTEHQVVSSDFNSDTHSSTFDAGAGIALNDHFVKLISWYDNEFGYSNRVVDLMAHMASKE

[21] = off-target signal loss in HeLa-CEM21 co-culture – HeLa F-luc CTL cells, cherry-picked, counter-screen for HIV-1 Env fusion inhibitor project, dose response (AID 652040); assay type: functional, cell-based;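 note: potency for signal decrease marking cytotoxic or nonspecific inhibition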
[22] = blockers of HIV-1 ZM109 envelope-driven cell-cell fusion – HeLa effector, CEM target cells, luciferase, cherry-pick, dose response (AID 652058); assay type: functional, cell-based;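 note: luciferase signal from HIV-1 Env mediated cell-cell fusion of effector and target cells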
[23] = blockers of HIV-1 envelope-mediated cell-cell fusion – cherry-pick, dose response (AID 652057); assay type: functional, cell-based
[24] = HIV-1 AD8 envelope cell-cell fusion blockers – cherry-pick, dose response (AID 652062); assay type: functional, cell-based;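 note: luciferase signal from cell-cell fusion driven by HIV-1 clade B AD8 Env; potency is for inhibitors of fusion seen as a drop in luminescence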
[25] = target: T4, RNA-binding protein pos-1 (Caenorhabditis elegans, UniProt G5EF15); assay: disruptors of C. elegans POS-1 RNA interaction – biochemical, fluorescence polarization, dose response (AID 1964);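 note: purified POS-1 fused to maltose binding protein made in E. coli; potency of compounds blocking POS-1 binding to fluorescent RNA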
T4 sequence (G5EF15 whole entry): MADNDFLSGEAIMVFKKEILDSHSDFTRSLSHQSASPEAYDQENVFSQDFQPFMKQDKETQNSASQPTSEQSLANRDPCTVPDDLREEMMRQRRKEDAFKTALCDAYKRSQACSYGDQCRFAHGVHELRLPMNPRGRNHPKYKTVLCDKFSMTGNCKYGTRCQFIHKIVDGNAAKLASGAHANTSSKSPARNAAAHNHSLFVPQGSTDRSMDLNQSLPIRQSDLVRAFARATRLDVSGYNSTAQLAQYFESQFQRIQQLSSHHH

[26] = target: T5, Zinc finger protein mex-5 (Caenorhabditis elegans, UniProt Q9XUB2); assay: potency of MEX-5 RNA-binding blockers – biochemical, C. elegans, fluorescence polarization, dose response (AID 1960)
T5 sequence (Q9XUB2 whole entry): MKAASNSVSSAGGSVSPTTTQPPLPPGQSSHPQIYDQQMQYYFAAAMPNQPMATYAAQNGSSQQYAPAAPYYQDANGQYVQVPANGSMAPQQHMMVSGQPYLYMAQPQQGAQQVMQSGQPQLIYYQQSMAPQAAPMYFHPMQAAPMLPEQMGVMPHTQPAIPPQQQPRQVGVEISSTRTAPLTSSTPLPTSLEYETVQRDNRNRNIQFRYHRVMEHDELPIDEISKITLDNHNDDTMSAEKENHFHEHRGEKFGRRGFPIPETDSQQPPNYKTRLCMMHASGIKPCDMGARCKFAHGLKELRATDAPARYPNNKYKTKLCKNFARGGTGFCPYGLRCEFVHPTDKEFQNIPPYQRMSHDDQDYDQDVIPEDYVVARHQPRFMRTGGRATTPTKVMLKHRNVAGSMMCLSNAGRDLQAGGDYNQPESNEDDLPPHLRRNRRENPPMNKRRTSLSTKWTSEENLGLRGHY

## Cc1ccn2cc(CCNC(=O)C3CC=CCC3C(=O)O)nc2c1 (configuration not stated)
[1]
  EC50: 3.76 µM (active)

## Oc1ccc(Nc2nc3ccccc3nc2Nc2ccc(O)cc2)cc1
[2]
  EC50: > 195 µM (not active)
[3]
  EC50: 4.43 µM (active)
[4]
  EC50: > 30 µM (not active)
[5]
  EC50: > 120 µM (not active)
[6]
  EC50: 1.25 µM (active)
[7]
  EC50: 21.4 µM (active)
[8]
  IC50: 67.3 µM (inactive)
[9]
  EC50: 1.19 µM (active)
[10]
  EC50: 117 µM (active)

## O=C(O)c1cc([N+](=O)[O-])c(Sc2nc3ccccc3[nH]2)c([N+](=O)[O-])c1
[11]
  IC50: > 100 µM (active)

## CCOc1ccc2c(c1)OC(c1ccc(C)cc1)(C(F)(F)F)NC2=O (configuration not stated)
[12]
  EC50: 1.32 µM (inconclusive)
[13]
  EC50: 4.54 µM (inconclusive)
[8]
  IC50: > 80 µM (inactive)
[14]
  EC50: 29.9 µM (inconclusive)
[15]
  EC50: > 38 µM (not active)
[16]
  EC50: 11.7 µM (inconclusive)
[17]
  EC50: > 160 µM (inconclusive)

## CCCn1c(SCC(=O)Nc2ccccc2-c2ccccc2)nnc1-c1ccoc1C
[18]
  IC50: 7.42 µM (active)
[19]
  IC50: 8.34 µM (active)

## COc1cccc(C(=O)NC2CCCN(C3Cc4ccccc4C3)C2)c1OC (configuration not stated)
[1]
  EC50: 5.31 µM (active)

## COc1ccccc1N1C(=O)NC(=O)/C(=C\c2cnn(-c3ccccc3)c2)C1=O
[11]
  IC50: > 100 µM (active)

## O=C(/C=C/c1cccc([N+](=O)[O-])c1)NCCSCc1ccc(Cl)cc1Cl
[18]
  IC50: 9.88 µM (active)
[19]
  IC50: 10.4 µM (active)

## COc1cccc(N2CCN(C3=C(Cl)C(=O)N(c4ccc(C)cc4)C3=O)CC2)c1
[20]
  IC50: > 50 µM (inconclusive)

## Cc1ccc2cc(C#N)c(NCCNC(=O)C3CCC3)nc2c1C
[21]
  AC50: 11 µM (active)
[22]
  AC50: 9.78 µM (active)
[23]
  AC50: 9.91 µM (active)
[24]
  AC50: 8.62 µM (active)

## Cc1ccc(Cn2c(C)nc3ccc([N+](=O)[O-])cc3c2=O)cc1
[18]
  IC50: 5.2 µM (active)
[19]
  IC50: 4.8 µM (active)

## COC(=O)C1=NN(C(=O)c2ccc(C)cc2)C(O)(c2ccc(Cl)cc2)C1 (configuration not stated)
[1]
  EC50: 6.68 µM (active)
[25]
  EC50: > 300 µM (not active)
[26]
  EC50: 37.7 µM (inconclusive)

## Cc1cc(C)c(NC(=O)COC(=O)c2cc([N+](=O)[O-])ccc2N2CCOCC2)c(C)c1
[18]
  IC50: 10.8 µM (active)
[19]
  IC50: 6.16 µM (active)

## COc1ccc(CCNc2oc(-c3cccc4ccccc34)nc2P(=O)(OC)OC)cc1OC
[21]
  AC50: 10.6 µM (active)
[22]
  AC50: 7.26 µM (active)
[23]
  AC50: 5 µM (active)
[24]
  AC50: 1.1 µM (active)

## OCCN1CCN(Cc2cc(Br)cc(Br)c2O)CC1
[1]
  EC50: 0.0293 µM (active)

## N#Cc1c(N)[nH]c(C(=O)c2ccccc2)c1-c1ccc(Cl)cc1
[18]
  IC50: 13.3 µM (active)
[19]
  IC50: 7.39 µM (active)

## Cn1cc(/C=N/n2cnc3scc(-c4ccc(Cl)cc4)c3c2=O)c2ccccc21
[12]
  EC50: 1.1 µM (active)
[13]
  EC50: 1.07 µM (active)
[25]
  EC50: > 300 µM (not active)
[8]
  IC50: > 80 µM (inactive)
[14]
  EC50: 1.77 µM (active)
[16]
  EC50: 0.85 µM (active)
[26]
  EC50: > 300 µM (not active)

## CCOC(=O)[C@@H]1[C@H]2COc3ccc(Br)cc3[C@@H]2N2C(=O)N(c3ccc(F)cc3)C(=O)[C@@]12C
[21]
  AC50: 3.77 µM (active)
[22]
  AC50: 5.78 µM (active)
[23]
  AC50: 1.72 µM (active)
[24]
  AC50: 4.5 µM (active)

## CCN(C[C@H]1N[C@@](CC)(C(=O)OC)[C@H]2C(=O)N(Cc3ccccc3)C(=O)[C@@H]12)C(=O)Nc1ccc(OC)cc1
[21]
  AC50: 1.23 µM (active)
[22]
  AC50: 0.581 µM (active)
[23]
  AC50: 0.421 µM (active)
[24]
  AC50: 0.993 µM (active)

## CC(=O)c1c(O)cc2c3c1OC(C)(C)C1CCC(C)(CC31)O2 (configuration not stated)
[21]
  AC50: 13.1 µM (active)
[22]
  AC50: 1.07 µM (active)
[23]
  AC50: 5.16 µM (active)
[24]
  AC50: 9.92 µM (active)
